In ChEMBL document CHEMBL5244245, “Medicinal chemistry insights into novel CDC25 inhibitors” (Eur J Med Chem, 2020):
One block for each molecule: values may come before it.

Tests used:
[1] = Antitumor activity against human RPMI cells; format: functional, cell-based
[2] = target: T1, M-phase inducer phosphatase 3 (Homo sapiens, UniProt P30307); experiment: Inhibition of human CDC25C
T1 sequence (P30307 whole entry): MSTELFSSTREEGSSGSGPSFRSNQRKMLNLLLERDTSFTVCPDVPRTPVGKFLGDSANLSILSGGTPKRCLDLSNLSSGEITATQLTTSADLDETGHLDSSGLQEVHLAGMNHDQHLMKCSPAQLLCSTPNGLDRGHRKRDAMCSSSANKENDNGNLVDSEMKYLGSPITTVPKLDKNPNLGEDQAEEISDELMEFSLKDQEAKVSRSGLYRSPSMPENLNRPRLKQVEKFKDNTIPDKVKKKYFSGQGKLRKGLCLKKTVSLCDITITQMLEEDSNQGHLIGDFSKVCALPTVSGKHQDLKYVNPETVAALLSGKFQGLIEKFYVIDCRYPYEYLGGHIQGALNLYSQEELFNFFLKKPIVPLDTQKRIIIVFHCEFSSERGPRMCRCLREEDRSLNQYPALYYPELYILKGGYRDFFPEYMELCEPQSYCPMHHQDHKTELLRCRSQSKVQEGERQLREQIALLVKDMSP

[3] = target: T2, M-phase inducer phosphatase 1 (Homo sapiens, UniProt P30304); experiment: Inhibition of human CDC25A
T2 sequence (P30304 whole entry): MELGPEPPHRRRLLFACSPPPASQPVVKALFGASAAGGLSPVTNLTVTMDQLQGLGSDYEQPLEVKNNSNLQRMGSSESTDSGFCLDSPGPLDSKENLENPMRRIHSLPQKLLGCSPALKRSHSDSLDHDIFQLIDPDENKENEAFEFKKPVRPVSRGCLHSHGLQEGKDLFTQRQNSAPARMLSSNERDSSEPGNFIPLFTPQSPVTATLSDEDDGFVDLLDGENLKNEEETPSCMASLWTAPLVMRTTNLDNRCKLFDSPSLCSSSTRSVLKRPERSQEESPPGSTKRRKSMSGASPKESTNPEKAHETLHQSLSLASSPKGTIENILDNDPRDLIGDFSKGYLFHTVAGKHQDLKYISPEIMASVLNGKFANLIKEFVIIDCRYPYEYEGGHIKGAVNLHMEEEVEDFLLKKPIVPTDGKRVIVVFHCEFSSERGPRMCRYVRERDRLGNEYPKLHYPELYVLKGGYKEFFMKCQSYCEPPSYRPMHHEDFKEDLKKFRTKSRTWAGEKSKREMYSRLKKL

[4] = target: T3, M-phase inducer phosphatase 2 (Homo sapiens, UniProt P30305); experiment: Inhibition of human CDC25B
T3 sequence (P30305 whole entry): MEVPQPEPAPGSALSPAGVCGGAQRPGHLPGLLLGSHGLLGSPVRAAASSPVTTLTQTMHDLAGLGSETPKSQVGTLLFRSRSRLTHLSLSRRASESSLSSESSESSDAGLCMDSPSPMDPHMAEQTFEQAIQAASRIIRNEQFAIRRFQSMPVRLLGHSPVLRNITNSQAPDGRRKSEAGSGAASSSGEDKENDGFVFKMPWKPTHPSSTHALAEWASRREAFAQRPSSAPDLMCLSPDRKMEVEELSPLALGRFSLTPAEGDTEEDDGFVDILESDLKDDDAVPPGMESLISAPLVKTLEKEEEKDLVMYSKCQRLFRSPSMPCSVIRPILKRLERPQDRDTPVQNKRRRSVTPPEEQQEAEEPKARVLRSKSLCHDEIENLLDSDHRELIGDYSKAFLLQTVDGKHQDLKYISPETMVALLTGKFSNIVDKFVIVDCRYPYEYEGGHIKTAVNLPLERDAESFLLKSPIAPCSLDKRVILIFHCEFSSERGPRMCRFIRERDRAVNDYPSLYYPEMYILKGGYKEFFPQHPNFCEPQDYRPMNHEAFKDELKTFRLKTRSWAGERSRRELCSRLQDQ

[5] = target: T1, M-phase inducer phosphatase 3; experiment: Inhibition of CDC25C (unknown origin)
[6] = target: T3, M-phase inducer phosphatase 2; experiment: Inhibition of CDC25B (unknown origin)
[7] = target: T2, M-phase inducer phosphatase 1; experiment: Inhibition of CDC25A (unknown origin)
HeLa = experiment: Cytotoxicity against human HeLa cells assessed as inhibition of cell growth incubated for 48 hrs by MTT assay; format: functional, cell-based
[8] = target: T2, M-phase inducer phosphatase 1; experiment: Inhibition of CDC25A (unknown origin) using fluorescein diphosphate as substrate
[9] = target: T3, M-phase inducer phosphatase 2; experiment: Inhibition of recombinant N-terminal GST-tagged CDC25B (unknown origin) expressed in Escherichia coli BL21 (DE3) cells incubated for 2 hrs
[10] = target: T1, M-phase inducer phosphatase 3; experiment: Inhibition of recombinant N-terminal GST-tagged CDC25C (unknown origin) expressed in Escherichia coli BL21 (DE3) cells incubated for 2 hrs
[11] = target: T2, M-phase inducer phosphatase 1; experiment: Inhibition of recombinant N-terminal GST-tagged CDC25A (unknown origin) expressed in Escherichia coli BL21 (DE3) cells incubated for 2 hrs
HCT-116 = experiment: Antitumor activity against human HCT-116 cells; format: functional, cell-based
[12] = target: T3, M-phase inducer phosphatase 2; experiment: Inhibition of human recombinant CDC25B
[13] = target: T2, M-phase inducer phosphatase 1; experiment: Inhibition of recombinant CDC25A (unknown origin)
[14] = target: T1, M-phase inducer phosphatase 3; experiment: Inhibition of recombinant CDC25C (unknown origin)
[15] = target: T3, M-phase inducer phosphatase 2; experiment: Inhibition of recombinant CDC25B (unknown origin)
[16] = target: T2, M-phase inducer phosphatase 1; experiment: Inhibition of N-terminal FLAG-tagged wild type CDC25A (331 to 524 residues) (unknown origin) expressed in Escherichia coli BL21 (DE3) cells incubated for 45 mins
[17] = target: T3, M-phase inducer phosphatase 2; experiment: Inhibition of recombinant N-terminal GST-tagged CDC25B (372 to 551 residues) (unknown origin) expressed in Escherichia coli BL21 (DE3) cells incubated for 45 mins

Structure (SMILES): O=C1C(F)=C(Nc2ccccc2)C(=O)c2c(F)c(F)c(F)c(F)c21
IC50 [1]: 0.8 µM

Structure (SMILES): O=C(O)c1ccc(NC2=C(Cl)C(=O)c3ccccc3C2=O)cc1
IC50 [2]: 5.41 µM
IC50 [3]: 3.19 µM
IC50 [4]: 11.1 µM

Structure (SMILES): CCCc1cc(O)nc(SCC(=O)NCCSCc2ccco2)n1
IC50 (HeLa): 66.3 µM
IC50 [8]: 7.9 µM

Structure (SMILES): COc1ccc2c(CSC3=CC(=O)c4ccccc4C3=O)cc(=O)oc2c1
IC50 [9]: 9.1 µM
IC50 [10]: 0.9 µM
IC50 [11]: 4.3 µM

Structure (SMILES): CCSC1=C(C)C(=O)c2ccccc2C1=O
IC50 [6]: 4.7 µM
IC50 [7]: 5.5 µM

Structure (SMILES): CC(C)=CCOc1ccc(C(=O)/C=C/c2ccc(Cl)cc2)c(O)c1
IC50 (HCT-116): 0.89 µM

Structure (SMILES): CC(C)n1c2c(=O)c(-c3ccc(F)cc3)cc(=O)c2c2c(=O)c3ccccc3c21
IC50 [5]: 2.55 µM
IC50 [7]: 2.73 µM

Structure (SMILES): CC(C)n1c2c(=O)c(-c3ccco3)cc(=O)c2c2c(=O)c3ccccc3c21
IC50 [5]: 1.72 µM
IC50 [7]: 1.68 µM

Structure (SMILES): CCCCOc1cc2c(c3c(=O)oc4ccccc4c13)C(=O)C=CC2=O
IC50 [5]: 9 µM
IC50 [6]: 46.1 µM
IC50 [7]: 13.2 µM

Structure (SMILES): CC(C)n1c2c(=O)c(-c3ccccc3)cc(=O)c2c2c(=O)c3ccccc3c21
IC50 [5]: 2 µM
IC50 [7]: 2.01 µM

Structure (SMILES): COC1=CC(=O)C=C([S@@+]([O-])c2ccc(C)cc2)C1=O
IC50 [2]: 5.72 µM
IC50 [3]: 2.6 µM
IC50 [4]: 6.99 µM

Continued, values first:

IC50 [1]: 0.7 µM
Structure (SMILES): CCNC1=C(F)C(=O)c2c(F)c(F)c(F)c(F)c2C1=O

IC50 [5]: 3.5 µM
IC50 [6]: 0.78 µM
IC50 [7]: 0.65 µM
Structure (SMILES): O=C(O)C1CCCCC1c1c2ccc(=O)cc-2oc2cc(O)ccc12 (stereo not drawn)

IC50 [5]: 2.51 µM
IC50 [7]: 2 µM
Structure (SMILES): Cc1cc(=O)c2c(c1=O)c1c(=O)c3ccccc3c1n2C(C)C

IC50 [4]: 39 µM
Structure (SMILES): CCOC(=O)c1ccc(N2C(=O)/C(=C\c3cccc(C)c3)SC2c2ccccc2)cc1 (stereo not drawn)

IC50 [12]: 4.5 µM
Structure (SMILES): CCOC(=O)C1=C(C)N=c2s/c(=C\c3cc(Br)c(O)c(Br)c3)c(=O)n2C1c1ccc2c(c1)OCO2 (stereo not drawn)

IC50 [13]: 0.023 µM
IC50 [14]: 0.023 µM
IC50 [15]: 0.053 µM
Structure (SMILES): CN(C)CCNC1=CC(=O)c2nc(-c3cc(F)ccc3F)oc2C1=O

IC50 [6]: 2.1 µM
Structure (SMILES): C[C@@H](C[C@@H](O)C(C)(C)C=O)[C@@H]1CC[C@]2(C)C3=CC[C@H]4C(C)(C)C(=O)CC[C@]4(C)[C@H]3CC[C@@]12C

IC50 [16]: 2200 µM
IC50 [17]: 1000 µM
Structure (SMILES): N#Cc1c(F)cc(O)cc1SCCS(=O)(=O)O

IC50 [6]: 3 µM
Structure (SMILES): CCOC(=O)C1=C(C)N=c2s/c(=C\c3ccc(-n4cc(CNC(=O)Nc5sccc5C(=O)O)nn4)cc3)c(=O)n2C1c1ccccc1 (stereo not drawn)

IC50 [13]: 0.023 µM
IC50 [14]: 0.023 µM
IC50 [15]: 0.053 µM
Structure (SMILES): Cc1nc2c(s1)C(=O)C=C(NCCN(C)C)C2=O

IC50 [6]: 6.44 µM
Structure (SMILES): CCCCCCCCCCCC/C=C/[C@]12C(=O)O[C@]3(C)O[C@]4(C)OC(=O)C(=C[C@H]1CCCCCCCCCCCC)C4C32 (single isomer, unassigned)
